In article PMC4827351 (Chemical Science, 2015):
“Also recorded” adds a separate entry of the source.

How the values were obtained:
[1] = system: TPCK-treated trypsin (Worthington); assay: 0.01 mg mL^–1 trypsin (1 : 100 trypsin : proHD6 (w/w)) in 100 mM Tris–HCl, 20 mM CaCl2, pH 8.0; settings: room temperature, up to 120 min
[2] = intestinal luminal aspirates obtained by endoscopy (ileal fluid); settings: human
[3] = biological target: the molecule itself; assay: AUC; sedimentation equilibrium; proHD6 30, 60 and 120 μM in 10 mM sodium phosphate pH 7.4, 30 000, 36 000 and 42 000 rpm, 20 °C, global fit with SEDPHAT; monomer to dimer

AFTCHCRRSCYSTEYSYGTCTVMGINHRFCCL
not cleaved [1]: resistant to trypsin-catalyzed degradation

EPLQAEDDPLQAKAYEADAQEQRGANDQDFAVSFAEDASSSLRALGSTRAFTCHCRRSCYSTEYSYGTCTVMGINHRFCCL
cleaved bond [2]: Arg68-Ala69 | cleaved bond [1]: Arg68-Ala69, 1 min | fragment found [1]: EPLQAEDDPLQAK, 1 min; also recorded: GANDQDFAVSFAEDASSSLR, 1 min

B1: proHD6 (81-residue propeptide of human α-defensin 6) (natural protein, UniProt Q01524 20-100, looked up)
chain: EPLQAEDDPLQAKAYEADAQEQRGANDQDFAVSFAEDASSSLRALGSTRAFTCHCRRSCYSTEYSYGTCTVMGINHRFCCL
notes: N-terminus EPLQ; Oxidatively folded regioisomer with the three native disulfide bonds (Cys4-Cys31, Cys6-Cys20, Cys10-Cys30, numbers count on mature HD6); Ulp1 cleavage leaves the native 81-residue peptide; also called HD6 propeptide; native proHD6; source: E. coli BL21(DE3) as His6-SUMO-proHD6, purified (Ni-NTA), Ulp1 digestion, reduction, oxidative folding, preparative HPLC; not shown: His6, …
stoichiometry N [3]: 2
